Structures can show the parent of a compound that is named as a salt.
Tested on: healthy male subjects
Assay: Two step infusion study in healthy male subjects: safety and tolerability
Assay type: in vivo, human
Experimental: A double-blind, placebo-controlled, randomized, single iv dose, two periods cross-over study to assess the safety, tolerability, pharmacodynamics and pharmacokinetics during and following a two step infusion of Tedisamil in healthy male subjects was performed with the following drug and dosages: Tedisamil dihydrochloride/0.4 mg/kg body weight infused over 30 minutes.
Screening assessments included physical examination, ECG, HIV/Hepatitis screening, blood pressure and heart rate measurements, clinical laboratory determinations, urine drug screen, alcohol breath test, and medical history. Follow-up assessments included physical examination, ECG, blood pressure and heart rate measurements, clinical laboratory determinations, and questions for adverse events and concomitant medication. During concomitant administration of Tedisamil, blood pressure, heart rate, and ECGs were recorded. Adverse events and concomitant medication were monitored throughout the study.
Subjects who received study medication, were considered valid for safety evaluation.
Treatment emergent adverse events, defined as any adverse event present at baseline that worsened or any event that began after treatment with study medication, were summarized by COSTART term for each treatment group. Each adverse event was evaluated for frequency of occurrence, duration, intensity, action taken, outcome, and relationship to administration of the study medication. Adverse events were listed for each subject.
Listings of abnormal or out of range values for each subject were presented for vital signs, laboratory assays, and physical examinations. Adverse events, blood pressure, heart rate and clinical laboratory data were analyzed descriptively and reviewed to evaluate the safety of all randomized subjects. Any clinical abnormalities were described.

Compound: C1CCC2(C1)C1CN(CC3CC3)CC2CN(CC2CC2)C1 [tedisamil dihydrochloride, N,N′-dicyclopropylmethyl-9,9-tetramethylen-3,7-diazabicyclo[3,3,1]nonane dihydrochloride]
- Findings in hematology, clinical chemistry, urinalysis and vital signs (0.4 mg/kg iv two step infusion): No clinically relevant findings
- Safety and tolerability (two step infusion of 0.4 mg tedisamil dihydrochloride per kg (0.32 mg/kg base), dihydrochloride): well tolerated

Source: US7087620B2, “Liquid pharmaceutical formulations containing 3,7-diazabicyclo[3,3,1]nonane compounds and methods of treatment relating to anti-arrhythmic events” (Solvay Pharmaceuticals GmbH, priority 2002, dated 2006)
